From patent publication US20240350460A1, “APPLICATION OF HYDRAZIDE COMPOUND IN TUMOR TREATMENT” (NANJING SHIJIANG MEDICINE TECHNOLOGY CO., LTD, priority 2021, published 2024) come the findings set out here.

What all share (type): cell-based
One assay deals with GB-1. As to the kind of experiment: Cell viability (Promega CellTiter-Glo), inhibitory effect on tumor cell line. The note with it: GB-1, human glioblastoma cell; insensitive group; 3-4 days of culture; n=3. In general terms: Cellular ATP, detected with luciferase, serves as a proxy for viable cell number.
For the next assay, the system named is NCI-H82. The description is as above. The note with it: NCI-H82, human small cell lung cancer cell; sensitive group; 3-4 days of culture; n=3. As to the method: Cell viability was detected using the Promega CellTiter-Glo kit, cell viability was determined by directly measuring intracellular ATP content. […] The name, source and culture conditions of each tumor cell line were as follows: […] HTB-175) was cultured in 10% fetal bovine serum-containing RPMI1640 medium (+P/S).

The test system of assay [1] is NNMT protein-overexpressing NCI-H82 cell (NCI-H82 (ov-NNMT)). As to the kind of experiment: Cell viability (Promega CellTiter-Glo) on NNMT protein-overexpressing NCI-H82 cell. The note with it: Homo sapiens; NCI-H82 overexpressing NNMT protein (NNMT gene inserted by viral vector); n=3. From the text: (§1) The NNMT protein-overexpressing NCI-H82 cell (NCI-H82 (ov-NNMT)) was obtained by inserting the NNMT gene into NCI-H82 cell using a viral vector. The control NCI-H82 cell (NCI-H82 (Con)) was obtained by transfecting NCI-H82 cell with empty virus vector without carrying NNMT gene.
(§2) The expressing level of NNMT protein in control NCI-H82 cell (NCI-H82 (Con)) and NNMT protein-overexpressing NCI-H82 cell (NCI-H82 (ov-NNMT)) was detected using Western Blot assay (as shown in FIG. 7), it could be seen from FIG. 7 that the NNMT protein in NCI-H82 (ov-NNMT) cell was overexpressed compared with the expression level of NNMT protein in NCI-H82 (Con) cell.

The subject of the next assay is SF126. As to the kind of experiment: Cell viability (Promega CellTiter-Glo), inhibitory effect on tumor cell line. The note with it: SF-126; SF126, human glioblastoma multiforme cell; insensitive group; 3-4 days of culture; n=3. On the procedure:
Cell viability was detected using the Promega CellTiter-Glo kit, cell viability was determined by directly measuring intracellular ATP content. […] The name, source and culture conditions of each tumor cell line were as follows: Cell line SF126 (JCRB, No. IFO50286) was cultured in 10% fetal bovine serum-containing EMEM medium (+P/S).

In another assay the test system is CFPAC-1. The description is as above. The note with it: CFPAC-1, human pancreatic cancer cell; insensitive group; 3-4 days of culture; n=3. As to the method:
Cell viability was detected using the Promega CellTiter-Glo kit, cell viability was determined by directly measuring intracellular ATP content. […] The name, source and culture conditions of each tumor cell line were as follows: Cell line CFPAC-1 (ATCC, No. CRL-1918) was cultured in 10% fetal bovine serum-containing IMDM medium (+P/S).

The subject of another assay is G-401. The description is as above. The note with it: G-401, human renal carcinoma Wilms cell; sensitive group; 3-4 days of culture; n=3. As to the method:
Cell viability was detected using the Promega CellTiter-Glo kit, cell viability was determined by directly measuring intracellular ATP content. […] The name, source and culture conditions of each tumor cell line were as follows: Cell line G-401 (ATCC, No. CRL-1441) was cultured in 10% fetal bovine serum-containing McCoy's 5a medium (+P/S).

The test system of the next assay is MDA-MB-453. The description is as above. The note with it: Homo sapiens; MDA-MB-453, breast cancer cell; sensitive group; 3-4 days of culture; n=3. On the procedure: Cell viability was detected using the Promega CellTiter-Glo kit, cell viability was determined by directly measuring intracellular ATP content. […] The name, source and culture conditions of each tumor cell line were as follows: Cell line MDA-MB-453 (ATCC, No. HTB-131) was cultured in 10% fetal bovine serum-containing Leibovitz's L-15 medium (+P/S).

For assay [2], the system named is control NCI-H82 cell (NCI-H82 (Con)). As to the kind of experiment: Cell viability (Promega CellTiter-Glo) on control NCI-H82 cell. The note with it: Homo sapiens; NCI-H82 transfected with empty virus vector without NNMT gene; n=3.
From the text: as §1, §2

The subject of a further assay is SW48. Briefly: Cell viability (Promega CellTiter-Glo), inhibitory effect on tumor cell line. The note with it: SW48, human colon adenocarcinoma cell; sensitive group; 3-4 days of culture; n=3. As to the method: Cell viability was detected using the Promega CellTiter-Glo kit, cell viability was determined by directly measuring intracellular ATP content. […] The name, source and culture conditions of each tumor cell line were as follows: Cell line SW48 (ATCC, No. CCL-231) was cultured in 10% fetal bovine serum-containing Leibovitz's L-15 medium (+P/S).

A further assay deals with WSU-DLCL2. Described as above. The note with it: WSUDLCL2; WSU-DLCL2, human diffuse large B-cell lymphoma; sensitive group; 3-4 days of culture; n=3. As to the method: Cell viability was detected using the Promega CellTiter-Glo kit, cell viability was determined by directly measuring intracellular ATP content. […] The name, source and culture conditions of each tumor cell line were as follows: Cell line WSU-DLCL2 (DSMZ, No. ACC-575) was cultured in 10% fetal bovine serum-containing RPMI1640 medium (+P/S).

Another assay concerns 786-O. The description is as above. The note with it: Homo sapiens, 786-0, clear cell renal cell adenocarcinoma cell, insensitive group, 3-4 days of culture, n=3. As to the method:
Cell viability was detected using the Promega CellTiter-Glo kit, cell viability was determined by directly measuring intracellular ATP content. […] The name, source and culture conditions of each tumor cell line were as follows: Cell line 786-O (ATCC, No. CRL-1932) was cultured in 10% fetal bovine serum-containing RPMI1640 medium (+P/S).

pIC50: −log10 of the molar value.

Broadly, the IC50 is the concentration that inhibits the measured activity by half. Read a low IC50 as higher potency. One may read the pIC50 as the negative decadic logarithm of the IC50, by convention in mol/L. A high value points to a low IC50. Regarding `O=C1OCCN1/N=C/c1ccc([N+](=O)[O-])o1` [Furazolidone, furazolidone], the IC50 was 38.4 µM with GB-1; 8.31 µM with NCI-H82; > 50 µM in the assay with SF126; > 50 µM in the assay on CFPAC-1; 5.77 µM in the assay with G-401; 7.73 µM in the assay on MDA-MB-453. Further, the IC50 with SW48 was found to be 8.23 µM; in the assay on WSU-DLCL2, 9.04 µM. Moreover, the pIC50 was 4.73 in [1] and 5.09 in assay [2].
In the case of `O=C(N/N=C/c1ccc([N+](=O)[O-])o1)c1ccc(O)cc1` [Nifuroxazide, nifuroxazide], the IC50 in the assay with 786-O is > 50 µM; with GB-1 it was 20 µM; in the assay with NCI-H82 it was 2.48 µM; in the assay with SF126, 16.4 µM; with CFPAC-1 it was > 50 µM; in the assay on G-401, 3.22 µM. For the same molecule, the IC50 in the assay with MDA-MB-453 stood at 2.78 µM; in the assay on SW48, 4.05 µM; in the assay on WSU-DLCL2 it was 4.22 µM. The pIC50 is 5.30 in assay [1] and 5.62 in assay [2].
